Data on 10 molecules can be found in ChEMBL document CHEMBL5608222, “Development of 3'-Deoxy-3',4'-didehydro-nucleoside Prodrug Inhibitors of West Nile and Zika Viruses” (ACS Med Chem Lett, 2024).

Molecules are shown by their SMILES. The source made the active and inactive calls. The calls are words filed in the database; no cut-off is given here. Where only a bound is given, the exact number is not on record here.

Data set [1] concerns West Nile virus. In words: Antiviral activity against WNV infected in Huh-7 cells assessed as log reduction in viral titer at 0.1 to 1 mM preincubated for 24 hrs prior to compound washout followed by viral infection for 1 hr again media washout and compound addition for 3 days by neutral red staining based assay. The data set is classed as functional. As to conditions: dose 0.1-1 mM; for Activity: time 96.0 hrs.

Data set [2] in a line: Cytotoxicity against african green monkey Vero cells assessed as decrease in cell viability at 0.1 to 1 mM incubated for 5 days by Alamar blue assay. In kind it is toxicity, cell-based. As to conditions: chlorocebus sabaeus, 120 h, 1000 µM, dose 0.1-1 mM, time 5 day. (In general: The colour change of resazurin is a common sign of viable cells or microbes.)
Data set [3] has as its system Huh-7. The data set can be described thus: Cytotoxicity against human Huh-7 cells assessed as decrease in cell viability at 0.1 to 1 mM incubated for 5 days by Alamar blue assay. The data set is classed as toxicity, cell-based. As to conditions: huh-7, 120 h, 1000 µM, dose 0.1-1 mM, time 5 day.
For data set [4], the system named is Huh-7. In words: Cytotoxicity against human Huh-7 cells at 0.1 to 1 mM incubated for 6 days by neutral red staining based assay. The data set is classed as toxicity, cell-based. As to conditions: huh-7, 144 h, 1000 µM, dose 0.1-1 mM, time 6 day.
Data set [5] relates to Huh-7. In words: Cytotoxicity against human Huh-7 cells assessed as decrease in cell viability at 1 mM incubated for 5 days by Alamar blue assay. The data set is classed as toxicity, cell-based. As to conditions: huh-7, 120 h, 1000 µM, time 5 day.
The nature of data set [6]: Cytotoxicity against african green monkey Vero cells assessed as decrease in cell viability at 1 mM incubated for 5 days by Alamar blue assay. In kind it is toxicity, cell-based. As to conditions: chlorocebus sabaeus, 120 h, 1000 µM, time 5 day.
Data set [7] has as its system Zika virus. In words: Antiviral activity against ZIKV infected in Huh-7 cells assessed as reduction in viral titer at 0.1 to 1 mM preincubated for 24 hrs prior to compound washout followed by viral infection for 1 hr again media washout and compound addition for 3 days by neutral red staining based assay. The data set is classed as functional. As to conditions: dose 0.1-1 mM.

Data set [8] deals with Zika virus. The data set can be described thus: Antiviral activity against ZIKV infected in Huh-7 cells assessed as log reduction in viral titer at 1 mM preincubated for 24 hrs prior to compound washout followed by viral infection for 1 hr again media washout and compound addition for 3 days by neutral red staining based assay. In kind it is functional.
Data set [9] has as its system Zika virus. The data set can be described thus: Antiviral activity against ZIKV infected in Huh-7 cells assessed as log reduction in viral titer at 0.1 mM preincubated for 24 hrs prior to compound washout followed by viral infection for 1 hr again media washout and compound addition for 3 days by neutral red staining based assay. In kind it is functional. The note with it: for Activity: time 96.0 hrs.

Data set [10] relates to West Nile virus. The data set can be described thus: Antiviral activity against WNV infected in Huh-7 cells assessed as log reduction in viral titer at 0.1 mM preincubated for 24 hrs prior to compound washout followed by viral infection for 1 hr again media washout and compound addition for 3 days by neutral red staining based assay. As to conditions: time 96 hrs. In kind it is functional.

For data set [11], the system named is West Nile virus. In words: Antiviral activity against WNV infected in Huh-7 cells assessed as log reduction in viral titer at 1 mM preincubated for 24 hrs prior to compound washout followed by viral infection for 1 hr again media washout and compound addition for 3 days by neutral red staining based assay. The note with it: time 96.0 hrs. The data set is classed as functional, organism-based.

The test system of data set [12] is Huh-7. The data set can be described thus: Cytotoxicity against human Huh-7 cells at 1 mM. In kind it is toxicity, cell-based. As to conditions: huh-7, 120 h, 1000 µM, time 5 day.
Data set [13] in a line: Cytotoxicity against human Huh-7 cells assessed as cell viability at 1 mM incubated for 6 days by neutral red staining based assay. The note with it: time 6 day, read-out: Activity. The data set is classed as toxicity.
The nature of data set [14]: Cytotoxicity against african green monkey Vero cells assessed as decrease in cell viability at 0.1 to 1 mM incubated for 2 days by Alamar blue assay. In kind it is toxicity, cell-based. As to conditions: chlorocebus sabaeus, 48 h, 1000 µM, dose 0.1-1 mM, time 2 day.

`Nc1nc2c(ncn2[C@@H]2OC(CO)=C[C@H]2O)c(=O)[nH]1`: in the data set with West Nile virus [1], the result was inactive. Also, the Activity result (in data set [2]; in the data set with Huh-7 [3]; in the data set on Huh-7 [4]) was “Non-Toxic” throughout.
As for `Cc1cn([C@@H]2OC(CO[P@@](=O)(N[C@@H](C)C(=O)OC(C)C)Oc3ccccc3)=C[C@H]2O)c(=O)[nH]c1=O`, the results for the Activity (in the data set with Huh-7 [5]; in data set [6]; in the data set on Huh-7 [4]) were 50%, “Non-Toxic” and “Non-Toxic”, respectively. In addition, the outcome in the data set with West Nile virus [1] and in the data set on Zika virus [7] (time 96.0 hrs) was inactive.
As for `CC(C)OC(=O)[C@H](C)N[P@](=O)(OCC1=C[C@@H](O)[C@H](n2cnc3c(=O)[nH]cnc32)O1)Oc1ccccc1`, the outcome with West Nile virus [1] and with Zika virus [7] (time 96.0 hrs) was inactive. In addition, the Activity result (in data set [2]; in the data set with Huh-7 [3]; with Huh-7 [4]) was “Non-Toxic” each time.
Regarding `Cc1cn([C@@H]2OC(CO)=C[C@H]2O)c(=O)[nH]c1=O`, in the data set on West Nile virus [1], the result was inactive. The Activity result (in data set [2]; in the data set on Huh-7 [3]; in the data set with Huh-7 [4]) was “Non-Toxic” each time.
Consider `CC(C)OC(=O)[C@H](C)N[P@](=O)(OCC1=C[C@@H](O)[C@H](n2ccc(=O)[nH]c2=O)O1)Oc1ccccc1`, for which the outcome in the data set with Zika virus [8] (time 96.0 hrs) and in the data set with West Nile virus [1] was inactive. Also, the results for the Activity (with Huh-7 [5]; in [6]; in the data set with Huh-7 [4]) were 70%, “Non-Toxic” and “Non-Toxic”, respectively. Also, the “log(activity)” value in the data set with Zika virus [9] (time 96 hrs) was determined as 2.5.
For the molecule `CC(C)OC(=O)[C@H](C)N[P@](=O)(OCC1=C[C@@H](O)[C@H](n2cnc3c(=O)[nH]c(N)nc32)O1)Oc1ccccc1`, the “log(activity)” value with Zika virus [8] (time 96 hrs) is 3.8. The result with West Nile virus [1] was inactive. For the same molecule, the Activity result (in data set [2]; in the data set with Huh-7 [3]; in the data set on Huh-7 [4]) was “Non-Toxic” each time. In the data set with Zika virus [9], the result was Active.
In the case of `O=c1ccn([C@@H]2OC(CO)=C[C@H]2O)c(=O)[nH]1`, in the data set with West Nile virus [1], the result was inactive. For the same molecule, the Activity result (in [2]; in the data set with Huh-7 [3]; in the data set on Huh-7 [4]) was “Non-Toxic” throughout.
`CC(C)OC(=O)[C@H](C)N[P@](=O)(OCC1=C[C@@H](O)[C@H](n2cnc3c(N)ncnc32)O1)Oc1ccccc1`: the Activity with Huh-7 [5] is on record as 25%; in the data set with Huh-7 [12] it was “Toxic”; in data set [6], 80%; in the data set on Zika virus [7] (time 96 hrs) it was 100%; in the data set on Huh-7 [4], “Toxic”. Further, the results for the “log(activity)” value in the data set with West Nile virus [10] and with West Nile virus [1] (time 96 hrs) were 2.5 and 4.8, respectively. Besides, the result in the data set on West Nile virus [11] and in the data set on Zika virus [9] was Active. The viability at 144 h, 1000 µM in data set [13] was found to be 70%.
Turning to `O=c1[nH]cnc2c1ncn2[C@@H]1OC(CO)=C[C@H]1O`, in the data set with West Nile virus [1], the outcome was inactive. Also, the Activity result (in [2]; in the data set with Huh-7 [3]; in the data set on Huh-7 [4]) was “Non-Toxic” each time.
Consider `Nc1ncnc2c1ncn2[C@@H]1OC(CO)=C[C@H]1O`, for which, in the data set on West Nile virus [10], the “log(activity)” value is 1.5. Also, the Activity entry in data set [2] is given as “Non-Toxic”; in the data set on Huh-7 [12], “Toxic”; in the data set on Huh-7 [3], below 25%; in [14], “Toxic”; in the data set on Huh-7 [4], “Toxic”. The result with West Nile virus [11] was Active. The viability at 144 h, 1000 µM in data set [13] turned out to be 70%.
